According to US6960574B2, “Antagonists of RF-amide neuropeptides” (University of Florida, priority 2002, dated 2005):
Peptide text beside a SMILES is read from it. * marks the point of attachment. Dansyl = CN(C)c1cccc2c(S(=O)(=O)*)cccc12

Tested on: receptor labeled by the radioiodinated analogue of 1 (4, [125I]-YLFQPQRF-NH2); neuropeptide FF receptor
Assay: Competitive radioligand binding against 4 ([125I]Y8F-amide)
Settings: mixture-based positional scanning; difference from averaged radioligand displacement of whole library (0); about 80 a.u. = 10-fold change in Ki

Row | SMILES | Relative Binding Index (RBI)
1 | CSCC[C@H](NC(=O)[C@H](CO)NS(=O)(=O)c1cccc2c(N(C)C)cccc12)C(=O)N[C@@H](CCCNC(=N)N)C(N)=O [Dansyl-SMR-amide] (Dansyl-Ser-Met-Arg-NH2) | 16 a.u.
2 | CN(C)c1cccc2c(S(=O)(=O)N[C@@H](CO)C(=O)N3CCC[C@H]3C(=O)N[C@@H](CCCNC(=N)N)C(N)=O)cccc12 [Dansyl-SPR-amide] (Dansyl-Ser-Pro-Arg-NH2) | 20 a.u.
3 | CN(C)c1cccc2c(S(=O)(=O)N[C@@H](CO)C(=O)N[C@@H](CCC(N)=O)C(=O)N[C@@H](CCCNC(=N)N)C(N)=O)cccc12 [Dansyl-SQR-amide] (Dansyl-Ser-Gln-Arg-NH2) | 30 a.u.
4 | CN(C)c1cccc2c(S(=O)(=O)N[C@@H](CO)C(=O)N[C@@H](CO)C(=O)N[C@@H](CCCNC(=N)N)C(N)=O)cccc12 [Dansyl-SSR-amide] (Dansyl-Ser-Ser-Arg-NH2) | 37 a.u.
5 | C[C@@H](O)[C@H](NC(=O)[C@H](CO)NS(=O)(=O)c1cccc2c(N(C)C)cccc12)C(=O)N[C@@H](CCCNC(=N)N)C(N)=O [Dansyl-STR-amide] (Dansyl-Ser-Thr-Arg-NH2) | 22 a.u.
6 | C[C@H](NC(=O)[C@@H](NS(=O)(=O)c1cccc2c(N(C)C)cccc12)[C@@H](C)O)C(=O)N[C@@H](CCCNC(=N)N)C(N)=O [Dansyl-TAR-amide] (Dansyl-Thr-Ala-Arg-NH2) | −58 a.u.
7 | C[C@@H](O)[C@H](NS(=O)(=O)c1cccc2c(N(C)C)cccc12)C(=O)N[C@@H](CC(=O)O)C(=O)N[C@@H](CCCNC(=N)N)C(N)=O [Dansyl-TDR-amide] (Dansyl-Thr-Asp-Arg-NH2) | −27 a.u.
8 | CC(O)C(NS(=O)(=O)c1cccc2c(N(C)C)cccc12)C(=O)NC(Cc1ccccc1)C(=O)NC(CCCNC(=N)N)C(N)=O (stereo not drawn) [Dansyl-TFR-amide] (Dansyl-Thr-Phe-Arg-NH2; configuration not given here) | −10 a.u.
9 | C[C@@H](O)[C@H](NS(=O)(=O)c1cccc2c(N(C)C)cccc12)C(=O)N[C@@H](Cc1c[nH]cn1)C(=O)N[C@@H](CCCNC(=N)N)C(N)=O [Dansyl-THR-amide] (Dansyl-Thr-His-Arg-NH2) | −14 a.u.
10 | C[C@@H](O)[C@H](NS(=O)(=O)c1cccc2c(N(C)C)cccc12)C(=O)N[C@@H](CCCCN)C(=O)N[C@@H](CCCNC(=N)N)C(N)=O [Dansyl-TKR-amide] (Dansyl-Thr-Lys-Arg-NH2) | −11 a.u.
11 | CC(C)C[C@H](NC(=O)[C@@H](NS(=O)(=O)c1cccc2c(N(C)C)cccc12)[C@@H](C)O)C(=O)N[C@@H](CCCNC(=N)N)C(N)=O [Dansyl-TLR-amide] (Dansyl-Thr-Leu-Arg-NH2) | −17 a.u.
12 | C[C@@H](O)[C@H](NS(=O)(=O)c1cccc2c(N(C)C)cccc12)C(=O)N1CCC[C@H]1C(=O)N[C@@H](CCCNC(=N)N)C(N)=O [Dansyl-TPR-amide] (Dansyl-Thr-Pro-Arg-NH2) | −5 a.u.
13 | C[C@@H](O)[C@H](NS(=O)(=O)c1cccc2c(N(C)C)cccc12)C(=O)N[C@@H](CCC(N)=O)C(=O)N[C@@H](CCCNC(=N)N)C(N)=O [Dansyl-TQR-amide] (Dansyl-Thr-Gln-Arg-NH2) | 5 a.u.
14 | C[C@@H](O)[C@H](NS(=O)(=O)c1cccc2c(N(C)C)cccc12)C(=O)N[C@@H](CO)C(=O)N[C@@H](CCCNC(=N)N)C(N)=O [Dansyl-TSR-amide] (Dansyl-Thr-Ser-Arg-NH2) | 12 a.u.
15 | C[C@@H](O)[C@H](NC(=O)[C@@H](NS(=O)(=O)c1cccc2c(N(C)C)cccc12)[C@@H](C)O)C(=O)N[C@@H](CCCNC(=N)N)C(N)=O [Dansyl-TTR-amide] (Dansyl-Thr-Thr-Arg-NH2) | −3 a.u.
16 | CC(C)[C@H](NC(=O)[C@@H](NS(=O)(=O)c1cccc2c(N(C)C)cccc12)[C@@H](C)O)C(=O)N[C@@H](CCCNC(=N)N)C(N)=O [Dansyl-TVR-amide] (Dansyl-Thr-Val-Arg-NH2) | −13 a.u.
17 | C[C@@H](O)[C@H](NS(=O)(=O)c1cccc2c(N(C)C)cccc12)C(=O)N[C@@H](Cc1c[nH]c2ccccc12)C(=O)N[C@@H](CCCNC(=N)N)C(N)=O [Dansyl-TWR-amide] (Dansyl-Thr-Trp-Arg-NH2) | 0 a.u.
18 | C[C@@H](O)[C@H](NS(=O)(=O)c1cccc2c(N(C)C)cccc12)C(=O)N[C@@H](Cc1ccc(O)cc1)C(=O)N[C@@H](CCCNC(=N)N)C(N)=O [Dansyl-TYR-amide] (Dansyl-Thr-Tyr-Arg-NH2) | −10 a.u.
19 | CC(C)[C@H](NS(=O)(=O)c1cccc2c(N(C)C)cccc12)C(=O)N[C@@H](C)C(=O)N[C@@H](CCCNC(=N)N)C(N)=O [Dansyl-VAR-amide] (Dansyl-Val-Ala-Arg-NH2) | −53 a.u.
20 | CC(C)[C@H](NS(=O)(=O)c1cccc2c(N(C)C)cccc12)C(=O)N[C@@H](CC(=O)O)C(=O)N[C@@H](CCCNC(=N)N)C(N)=O [Dansyl-VDR-amide] (Dansyl-Val-Asp-Arg-NH2) | −22 a.u.
21 | CC(C)[C@H](NS(=O)(=O)c1cccc2c(N(C)C)cccc12)C(=O)N[C@@H](Cc1ccccc1)C(=O)N[C@@H](CCCNC(=N)N)C(N)=O [Dansyl-VFR-amide] (Dansyl-Val-Phe-Arg-NH2) | −6 a.u.
22 | CC(C)[C@H](NS(=O)(=O)c1cccc2c(N(C)C)cccc12)C(=O)N[C@@H](Cc1cnc[nH]1)C(=O)N[C@@H](CCCNC(=N)N)C(N)=O [Dansyl-VHR-amide] (Dansyl-Val-His-Arg-NH2) | −10 a.u.
23 | CC(C)C[C@H](NC(=O)[C@@H](NS(=O)(=O)c1cccc2c(N(C)C)cccc12)C(C)C)C(=O)N[C@@H](CCCNC(=N)N)C(N)=O [Dansyl-VLR-amide] (Dansyl-Val-Leu-Arg-NH2) | −13 a.u.

Further lines, results first:

Row | Relative Binding Index (RBI) | SMILES
24 | 18 a.u. | CN(C)c1cccc2c(S(=O)(=O)N[C@@H](CO)C(=O)N[C@@H](CC(N)=O)C(=O)N[C@@H](CCCNC(=N)N)C(N)=O)cccc12 [Dansyl-SNR-amide] (Dansyl-Ser-Asn-Arg-NH2)
25 | 15 a.u. | CN(C)c1cccc2c(S(=O)(=O)N[C@@H](CO)C(=O)N[C@@H](CCCNC(=N)N)C(=O)N[C@@H](CCCNC(=N)N)C(N)=O)cccc12 [Dansyl-SRR-amide] (Dansyl-Ser-Arg-Arg-NH2)
26 | 12 a.u. | CC(C)[C@H](NC(=O)[C@H](CO)NS(=O)(=O)c1cccc2c(N(C)C)cccc12)C(=O)N[C@@H](CCCNC(=N)N)C(N)=O [Dansyl-SVR-amide] (Dansyl-Ser-Val-Arg-NH2)
27 | 25 a.u. | CN(C)c1cccc2c(S(=O)(=O)N[C@@H](CO)C(=O)N[C@@H](Cc3c[nH]c4ccccc34)C(=O)N[C@@H](CCCNC(=N)N)C(N)=O)cccc12 [Dansyl-SWR-amide] (Dansyl-Ser-Trp-Arg-NH2)
28 | 15 a.u. | CN(C)c1cccc2c(S(=O)(=O)N[C@@H](CO)C(=O)N[C@@H](Cc3ccc(O)cc3)C(=O)N[C@@H](CCCNC(=N)N)C(N)=O)cccc12 [Dansyl-SYR-amide] (Dansyl-Ser-Tyr-Arg-NH2)
29 | −8 a.u. | C[C@@H](O)[C@H](NS(=O)(=O)c1cccc2c(N(C)C)cccc12)C(=O)N[C@@H](CCC(=O)O)C(=O)N[C@@H](CCCNC(=N)N)C(N)=O [Dansyl-TER-amide] (Dansyl-Thr-Glu-Arg-NH2)
30 | −3 a.u. | C[C@@H](O)[C@H](NS(=O)(=O)c1cccc2c(N(C)C)cccc12)C(=O)NCC(=O)N[C@@H](CCCNC(=N)N)C(N)=O [Dansyl-TGR-amide] (Dansyl-Thr-Gly-Arg-NH2)
31 | −2 a.u. | CC[C@H](C)[C@H](NC(=O)[C@@H](NS(=O)(=O)c1cccc2c(N(C)C)cccc12)[C@@H](C)O)C(=O)N[C@@H](CCCNC(=N)N)C(N)=O [Dansyl-TIR-amide] (Dansyl-Thr-Ile-Arg-NH2)
32 | −9 a.u. | CSCC[C@H](NC(=O)[C@@H](NS(=O)(=O)c1cccc2c(N(C)C)cccc12)[C@@H](C)O)C(=O)N[C@@H](CCCNC(=N)N)C(N)=O [Dansyl-TMR-amide] (Dansyl-Thr-Met-Arg-NH2)
33 | −7 a.u. | C[C@@H](O)[C@H](NS(=O)(=O)c1cccc2c(N(C)C)cccc12)C(=O)N[C@@H](CC(N)=O)C(=O)N[C@@H](CCCNC(=N)N)C(N)=O [Dansyl-TNR-amide] (Dansyl-Thr-Asn-Arg-NH2)
34 | −10 a.u. | C[C@@H](O)[C@H](NS(=O)(=O)c1cccc2c(N(C)C)cccc12)C(=O)N[C@@H](CCCNC(=N)N)C(=O)N[C@@H](CCCNC(=N)N)C(N)=O [Dansyl-TRR-amide] (Dansyl-Thr-Arg-Arg-NH2)
35 | −4 a.u. | CC(C)[C@H](NS(=O)(=O)c1cccc2c(N(C)C)cccc12)C(=O)N[C@@H](CCC(=O)O)C(=O)N[C@@H](CCCNC(=N)N)C(N)=O [Dansyl-VER-amide] (Dansyl-Val-Glu-Arg-NH2)
36 | 1 a.u. | CC(C)[C@H](NS(=O)(=O)c1cccc2c(N(C)C)cccc12)C(=O)NCC(=O)N[C@@H](CCCNC(=N)N)C(N)=O [Dansyl-VGR-amide] (Dansyl-Val-Gly-Arg-NH2)
37 | 2 a.u. | CC[C@H](C)[C@H](NC(=O)[C@@H](NS(=O)(=O)c1cccc2c(N(C)C)cccc12)C(C)C)C(=O)N[C@@H](CCCNC(=N)N)C(N)=O [Dansyl-VIR-amide] (Dansyl-Val-Ile-Arg-NH2)
38 | −7 a.u. | CC(C)[C@H](NS(=O)(=O)c1cccc2c(N(C)C)cccc12)C(=O)N[C@@H](CCCCN)C(=O)N[C@@H](CCCNC(=N)N)C(N)=O [Dansyl-VKR-amide] (Dansyl-Val-Lys-Arg-NH2)
39 | −4 a.u. | CSCC[C@H](NC(=O)[C@@H](NS(=O)(=O)c1cccc2c(N(C)C)cccc12)C(C)C)C(=O)N[C@@H](CCCNC(=N)N)C(N)=O [Dansyl-VMR-amide] (Dansyl-Val-Met-Arg-NH2)
40 | −3 a.u. | CC(C)[C@H](NS(=O)(=O)c1cccc2c(N(C)C)cccc12)C(=O)N[C@@H](CC(N)=O)C(=O)N[C@@H](CCCNC(=N)N)C(N)=O [Dansyl-VNR-amide] (Dansyl-Val-Asn-Arg-NH2)
